Assay results reported in article PMC8850458, “The AUTOTAC chemical biology platform for targeted protein degradation via the autophagy-lysosome system” (Nature Communications, 2022).
Where “and” joins values, the source holds several entries; their conditions need not be identical. Equal values may be shown once. One block for each molecule: values may come before it.

Key:
tauP301L = tauP301L (Homo sapiens, UniProt P10636, P618L); test: In vitro pulldown assay of biotinylated PBA; format: binding; conditions: tauP301L stably expressed in SH-SY5Y cells
Sequence of tauP301L (P10636 1-441 isoform P10636-8 P301L): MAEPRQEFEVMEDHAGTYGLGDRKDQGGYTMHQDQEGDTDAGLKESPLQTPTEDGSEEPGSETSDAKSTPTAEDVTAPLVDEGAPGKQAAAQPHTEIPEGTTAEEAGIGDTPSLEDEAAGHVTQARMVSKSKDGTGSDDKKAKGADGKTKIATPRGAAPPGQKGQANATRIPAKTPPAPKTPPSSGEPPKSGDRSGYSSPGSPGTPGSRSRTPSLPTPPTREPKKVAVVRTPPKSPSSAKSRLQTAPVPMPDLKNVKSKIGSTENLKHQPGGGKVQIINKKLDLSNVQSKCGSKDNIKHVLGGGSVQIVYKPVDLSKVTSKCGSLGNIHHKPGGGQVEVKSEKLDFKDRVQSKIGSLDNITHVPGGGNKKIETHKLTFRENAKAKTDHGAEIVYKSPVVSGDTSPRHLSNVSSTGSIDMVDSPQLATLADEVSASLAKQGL
Method: A set of synthetic 12-mer peptides corresponding to the N-terminal sequences of the V-BiP (V[19]-[…]-biotin) and V-RGS4 (V^2-[…]-biotin) was C-terminally biotin-conjugated. Alternatively, biotinylated versions of YOK-1304, YT-8-8, YTK-1105, YOK-2204, and PBA were synthesized. To cross-link the above peptides with resin beads, biotin-conjugated peptides, and small molecule were mixed with high-capacity streptavidin agarose resin (Thermo Fisher Scientific) at a ratio of 0.5 mg of peptide per 1 mL of settled resin and incubated on a rotator at 4 °C overnight. After washing five times with PBS, the peptide/small molecule-bead conjugates were diluted with PBS at a 1:1 ratio. To prepare protein extracts, cells were collected by centrifugation and lysed by freezing and thawing at least 10 times in hypotonic buffer [10 mM KCl, 1.5 mM MgCl2, and 10 mM HEPES (pH 7.9)] with a protease inhibitor mix (Sigma). After centrifugation at 15,000 rpm 4 °C for 15 min, proteins were quantified using a BCA protein assay kit (Thermo Fisher Scientific). Total protein (200 μg) diluted in 300 μL of binding buffer [0.05% Tween-20, 10% glycerol, 0.2 M KCl, and 20 mM HEPES (pH 7.9)] were mixed with 50 μL of peptide/small molecule-bead resin and incubated at 4 °C for 2 h on a rotator. The protein-bound beads were collected by centrifugation at 2400 × g for 3 min and washed five times with binding buffer. […]

[1] = molecular target: T1, tau oligomers (htauP301L-BiFC bodies) and phosphorylated tau-BiFC (Homo sapiens, UniProt P10636, P618L); test: Immunohistochemistry of BiFC and AT8 fluorescence in brains of hTauP301L-BiFC mice; format: in vivo; conditions: Fig. 6k; for Sudan black B (BiFC fluorescence) CA1, per animal: control AVG 32.0843; for Sudan black B (BiFC fluorescence) Cortex, per animal: control AVG 98.7415
T1 construct: from tissue; host or cells: brain of 9-month-old hTauP301L-BiFC transgenic mice (C57BL/6)
T1 sequence (P10636 1-441 isoform P10636-8 P301L): as above
Method: To evaluate the effect of PBA-1105 on tau aggregation in vivo, PBA-1105 was intraperitoneally administered to 9-month-old TauP301L-mice (n = 7 per group) with 20 or 50 mg/kg dosage. PBS containing 30% polyethylene glycol (PEG) was used as a vehicle. Twelve total administrations were performed for 4 weeks, three times a week.
Mice were anesthetized by intraperitoneal injection of 2% avertin (2,2,2-Tribromoethanol). Mice were then perfused with 0.9% saline. Brains were rapidly extracted and fixed with PBS containing 4% paraformaldehyde for 48 hr. For, cryprotection, the brains were infiltrated with PBS containing 30% sucrose at 4 °C until they sunk. For cryosectioning, the brains were embedded with O.C.T (Leica, Germany) and serially cut in the coronal plane into 30-μm thick sections on a cryostat microtome (Leica). Tissue slices were transferred to PBS containing 0.05% sodium azide as a preservative and stored at 4 °C.
To reduce autofluorescence of brain tissues, Sudan Black B stain was performed. Brain tissue slices were mounted onto glass slides and were stained with Sudan Black B solution (70 % ethanol containing 0.05% Sudan Black B) for 10 min. Then, to eliminate the excessive stain, the slides were dipped in PBS containing 0.1% Triton X-100 three times and washed with distilled water after. For nuclei counter-stain, brain tissues were stained with 0.5 μg/mL Hoechst in distilled water for 30 min. BiFC fluorescence (λex = 460−490 nm and λem = 500−550 nm) of brain slices were imaged using ZEISS® Axio Scan.Z1 (Zeiss, Germany). Fluorescence and total area of each puncta were measured using ImageJ (NIH, Bethesda).

p62^+ERβ^+ puncta = test: ICC of ERβ puncta co-localization in ACHN cells; format: cell-based; conditions: 24 h; for ERβ-LC3 colocalization, cells of 50 cells counted: single experiments
Method: Cells were cultured on coverslips coated with poly-L-lysine (Sigma) to observe cellular localization of proteins. Using 4% paraformaldehyde in PBS (pH 7.4), the cells were fixed for 15 min at room temperature and washed three times for 5 min with PBS. After fixing, the cells were permeabilized with 0.5% Triton X-100 in PBS solution for 15 min and washed three times with PBS for 5 min. The cells were blocked containing 2% BSA in PBS solution for 1 h at room temperature. Subsequently, the cells were incubated with primary antibody diluted in 2% BSA/PBS solution overnight at 4 °C, followed by washing the cells three times for 10 min with PBS and incubated with Alexa Fluor-conjugated secondary antibody diluted in 2% BSA/PBS for 30 min at room temperature. Using a DAPI-containing mounting medium (Vector Laboratories), the coverslips were mounted on glass slides. Confocal images were taken by laser scanning confocal microscope 510 Meta (Zeiss) and analyzed by Zeiss LSM Image Browser (ver. 4.2.0.121). […] Quantification results are shown as mean ± S.D. or S.E.M. of three independent experiments

- binding of tauP301L in pulldown (tauP301L): bound
Structure (SMILES): O=C(O)CCCc1ccccc1 [4-PBA, 4-phenylbutyric acid]

Structure (SMILES): O=C(CCCc1ccccc1)NCCOCCOCCOCCNCc1ccc(OCc2ccccc2)c(OCc2ccccc2)c1 [PBA-1105]
- Sudan black B AVG % CA1 ([1]; 20 mg/kg, control 100): 74.803%
- Sudan black B AVG % Cortex ([1]; 20 mg/kg, control 100): 62.7215%
- Sudan black B (BiFC fluorescence) CA1, per animal ([1]; 20 mg/kg): 19.17 and 25.62 and 30.19 and 23.53 and 13.28 and 12.8 and 43.41
- Sudan black B (BiFC fluorescence) Cortex, per animal ([1]; 20 mg/kg): 48.97 and 40.445 and 49.503 and 29.786 and 68.378 and 118.96 and 77.483
- Sudan black B AVG % Cortex ([1]; 50 mg/kg, control 100): 38.7498%
- Sudan black B (BiFC fluorescence) CA1, per animal ([1]; 50 mg/kg): 28.22 and 22.5 and 36.39 and 26.84 and 28.79 and 49.66 and 49.74
- Sudan black B (BiFC fluorescence) Cortex, per animal ([1]; 50 mg/kg): 22.584 and 15.381 and 25.562 and 21.978 and 66.624 and 61.234 and 54.472

Structure (SMILES): O[C@H](CNCCOCCOCCOc1ccc(-c2c(-c3ccccc3)nn3c(C(F)(F)F)cc(C(F)(F)F)nc23)cc1)COc1ccc(OCc2ccccc2)c(OCCCc2ccccc2)c1 [PHTPP-1304]
- ERβ-LC3 colocalization, AVG of cells of 50 (p62^+ERβ^+ puncta; 0.5uM): 5.667
- ERβ-LC3 colocalization, percentage AVG (p62^+ERβ^+ puncta; 0.5uM): 11.3333%
- ERβ-LC3 colocalization, AVG of cells of 50 (p62^+ERβ^+ puncta; 2.5uM): 12.6667
- ERβ-LC3 colocalization, percentage AVG (p62^+ERβ^+ puncta; 2.5uM): 25.3333%
- ERβ-LC3 colocalization, AVG of cells of 50 (p62^+ERβ^+ puncta; 10uM + HCQ): 39
- ERβ-LC3 colocalization, percentage AVG (p62^+ERβ^+ puncta; 10uM + HCQ): 78%
- ERβ-LC3 colocalization, cells of 50 cells counted (p62^+ERβ^+ puncta; 10uM + HCQ): 34 and 42 and 41
- ERβ-LC3 colocalization, AVG of cells of 50 (p62^+ERβ^+ puncta; 10uM): 29
- ERβ-LC3 colocalization, percentage AVG (p62^+ERβ^+ puncta; 10uM): 58%
- ERβ-LC3 colocalization, cells of 50 cells counted (p62^+ERβ^+ puncta; 10uM): 24 and 34 and 29
